Experimental data as given in patent US20250188030A1, “Biphenyl and Phenylpyridine Compounds” (Pfizer Inc., priority 2023, published 2025).
Like-named read-outs stand apart in the source and are kept apart here.

Columns and labels:
KAT2B = KAT2B (Homo sapiens (Human), UniProt Q92831); experiment: KAT2B acetyltransferase biochemical assay (RapidFire mass spectrometry, AcCoA to CoA)
MM.1S cells = experiment: MM1.S 10 Day Proliferation Assay (CellTiter-Glo); assay type: cell-based, Human; settings: Homo sapiens, MM1.S, 240 h
Procedure, shortened: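 MM.1S cells, 500/well in ultra-low-attachment plates, were pre-incubated 16 h, then exposed to a 10-point 1:3 dilution series (top 10 μM final, 0.1% DMSO) for 10 days at 37 °C, with compound-containing medium refreshed at day 5. Viability was read by CellTiter-Glo luminescence; IC50 came from four-parameter fit.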

KAT2A = KAT2A (Homo sapiens (Human), UniProt Q92830); experiment: KAT2A acetyltransferase biochemical assay (RapidFire mass spectrometry, AcCoA to CoA)
H3K9AC (HT1080 cells) = experiment: H3K9AC Sandwich ELISA Assay in HT1080 cells (KAT2A primary cell-based screening assay); set-up: species or system Human
Procedure, shortened: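 Acetylated H3K9 quantified by luminescent sandwich ELISA (total H3 capture, H3K9ac detection) on HCl lysates of HT1080 cells. Cells had 24 h compound exposure at 37 °C, top concentration 10 µM, 10-point 3-fold series, 0.1% DMSO; IC50 from four-parameter fitting.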

[1] = read-out: KAT2B Ki at 1 μM AcCoA, 1 μM AcCoA, 5 μM H3 1-21 peptide, 0.5 nM KAT2B, 90-minute reaction
[2] = read-out: KAT2A Ki at 1 μM AcCoA, 5 μM H3 1-21 peptide, 0.5 nM KAT2A, 90-minute reaction
[3] = Homo sapiens, HT-1080, H3K9AC sandwich ELISA

Sequence of KAT2A (Q92830 whole entry): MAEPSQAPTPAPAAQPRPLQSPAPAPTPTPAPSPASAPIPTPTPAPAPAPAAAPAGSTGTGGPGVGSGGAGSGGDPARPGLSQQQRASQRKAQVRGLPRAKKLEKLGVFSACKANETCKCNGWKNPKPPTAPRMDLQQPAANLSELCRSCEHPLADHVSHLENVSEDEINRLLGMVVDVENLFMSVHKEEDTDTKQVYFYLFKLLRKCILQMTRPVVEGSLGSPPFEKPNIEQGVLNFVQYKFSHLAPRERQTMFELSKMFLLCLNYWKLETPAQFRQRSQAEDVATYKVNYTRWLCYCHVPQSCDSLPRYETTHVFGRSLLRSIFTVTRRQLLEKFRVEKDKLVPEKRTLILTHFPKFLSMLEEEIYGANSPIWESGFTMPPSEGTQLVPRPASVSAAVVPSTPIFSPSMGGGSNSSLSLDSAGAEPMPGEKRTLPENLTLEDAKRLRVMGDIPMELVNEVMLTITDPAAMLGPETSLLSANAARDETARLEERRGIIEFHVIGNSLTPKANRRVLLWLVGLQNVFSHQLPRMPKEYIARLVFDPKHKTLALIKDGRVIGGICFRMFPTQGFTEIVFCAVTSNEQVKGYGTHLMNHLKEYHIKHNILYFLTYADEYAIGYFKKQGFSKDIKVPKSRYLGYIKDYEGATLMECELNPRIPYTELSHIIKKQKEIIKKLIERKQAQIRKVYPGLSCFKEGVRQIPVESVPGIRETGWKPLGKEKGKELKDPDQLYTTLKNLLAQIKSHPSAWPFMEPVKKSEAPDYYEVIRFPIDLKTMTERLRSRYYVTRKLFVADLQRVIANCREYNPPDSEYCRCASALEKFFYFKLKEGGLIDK
Sequence of KAT2B (Q92831 2-832): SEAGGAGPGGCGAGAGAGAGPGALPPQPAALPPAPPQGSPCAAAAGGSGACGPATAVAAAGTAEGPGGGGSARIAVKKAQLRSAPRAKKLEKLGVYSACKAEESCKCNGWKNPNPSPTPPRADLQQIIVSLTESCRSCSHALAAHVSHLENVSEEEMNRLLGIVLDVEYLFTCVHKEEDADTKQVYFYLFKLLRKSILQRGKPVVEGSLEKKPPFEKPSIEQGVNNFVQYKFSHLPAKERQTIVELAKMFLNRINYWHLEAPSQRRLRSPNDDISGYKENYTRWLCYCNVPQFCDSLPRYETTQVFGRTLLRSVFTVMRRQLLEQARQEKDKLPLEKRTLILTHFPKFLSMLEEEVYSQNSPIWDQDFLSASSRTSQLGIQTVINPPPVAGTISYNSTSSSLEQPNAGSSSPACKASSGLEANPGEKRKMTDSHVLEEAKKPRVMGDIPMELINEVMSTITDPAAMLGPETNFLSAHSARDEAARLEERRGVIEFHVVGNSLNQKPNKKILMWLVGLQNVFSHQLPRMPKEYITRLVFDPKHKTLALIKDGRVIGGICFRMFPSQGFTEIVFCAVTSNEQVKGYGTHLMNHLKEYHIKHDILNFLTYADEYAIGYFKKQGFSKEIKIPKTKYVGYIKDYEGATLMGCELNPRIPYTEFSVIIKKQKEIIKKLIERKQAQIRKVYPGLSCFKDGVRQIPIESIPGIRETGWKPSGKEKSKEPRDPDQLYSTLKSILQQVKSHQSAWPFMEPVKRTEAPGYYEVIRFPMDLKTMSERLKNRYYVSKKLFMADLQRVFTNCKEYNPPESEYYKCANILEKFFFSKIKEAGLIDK

Row | SMILES | Ki (KAT2B; [1]) [nM] | IC50 (MM.1S cells) [nM] | Ki (KAT2A; [2]) [nM] | IC50 (H3K9AC (HT1080 cells); [3]) [nM] | Ki (KAT2B) [nM] | Ki (KAT2A; KAT2A Ki at 1 μM AcCoA, 5 μM H3 1-21 peptide, 0.5 nM KAT2A, 90-minute reaction) [nM] | IC50 (H3K9AC (HT1080 cells); H3K9AC sandwich ELISA) [nM]
1 | CC(C)S(=O)(=O)NC(=O)Cc1ccc(O[C@@H]2CC[C@@H](NC(=O)[C@]3(F)CNC4(CCC4)C3)C2)c(-c2cccc(F)c2C2CCC2)c1 (single isomer, unassigned) [Example C40] | – | 3.5 | – | – | 0.07 | 0.02 | 1.5
2 | CN1CC(C)(C)C[C@H]1C(=O)N[C@H]1C[C@H](Oc2ccc(C(=O)O)cc2-c2cccc(F)c2C2CCC2)C[C@H]1O (single isomer, unassigned) [Example K3, 2′-cyclobutyl-3′-fluoro-6-({(1ξ,3ξ,4ξ)-3-hydroxy-4-[(1,4,4-trimethyl-L-prolyl)amino]cyclopentyl}oxy)[1,1′-biphenyl]-3-carboxylic acid] | 0.56 | 15.9 | 0.19 | 4.29 | – | – | –
3 | CCc1c(F)cccc1-c1cc(C(C)(C)C(=O)NS(=O)(=O)C(C)C)ccc1O[C@@H]1CC[C@@H](NC(=O)[C@@]2(F)CNC3(CCC3)C2)C1 [Example C18, (7S)-N-[(1R,3R)-3-({2′-ethyl-3′-fluoro-5-[2-methyl-1-oxo-1-(propane-2-sulfonamido)propan-2-yl][1,1′-biphenyl]-2-yl}oxy)cyclopentyl]-7-fluoro-5-azaspiro[3.4]octane-7-carboxamide] | 0.31 | 30.6 | 0.1 | 2.34 | – | – | –
4 | CN1CC(C)(C)C[C@H]1C(=O)N[C@@H]1CC[C@@H](Oc2ccc(C(C)(C)C(=O)NS(C)(=O)=O)cc2-c2cccc(F)c2C2CCC2)C1 [Example E1, N-{(1R,3R)-3-[(2′-cyclobutyl-3′-fluoro-5-{1-[(methanesulfonyl)amino]-2-methyl-1-oxopropan-2-yl}[1, 1′-biphenyl]-2-yl)oxy]cyclopentyl}-1,4,4-trimethyl-L-prolinamide] | 0.38 | 31.5 | 0.15 | 5.06 | – | – | –

Continued by falling IC50 (MM.1S cells), values first:

Row | Ki (KAT2B; [1]) [nM] | IC50 (MM.1S cells) [nM] | Ki (KAT2A; [2]) [nM] | IC50 (H3K9AC (HT1080 cells); [3]) [nM] | Ki (KAT2B) [nM] | Ki (KAT2A; KAT2A Ki at 1 μM AcCoA, 5 μM H3 1-21 peptide, 0.5 nM KAT2A, 90-minute reaction) [nM] | IC50 (H3K9AC (HT1080 cells); H3K9AC sandwich ELISA) [nM] | SMILES
5 | 22.2 | 193 | 9.48 | 39.2 | – | – | – | CN1CC(C)(C)C[C@H]1C(=O)N[C@@H]1CC[C@@H](Oc2ccc(CC(=O)O)cc2-c2cccc(F)c2C2CCC2)C1 [Example D10, [2′-cyclobutyl-3′-fluoro-6-({(1R,3R)-3-[(1,4,4-trimethyl-L-prolyl)amino]cyclopentyl}oxy)[1,1′-biphenyl]-3-yl]acetic acid]
6 | 0.49 | 52 | 0.27 | – | – | – | 19.5 | Cn1cc(-c2ccc(O[C@@H]3CC[C@@H](NC(=O)[C@]4(F)CNC5(CCC5)C4)C3)c(-c3cccc(F)c3C3CCC3)c2)c(C(=O)O)n1 (single isomer, unassigned) [Example J10]
7 | 0.46 | 20.6 | 0.26 | – | – | – | 3.88 | Cn1cc(-c2ccc(O[C@@H]3CC[C@@H](NC(=O)[C@]4(F)CNC5(CCC5)C4)C3)c(-c3cccc(F)c3C3CCC3)c2)c(C(C)(C)C(=O)O)n1 (single isomer, unassigned) [Example J7]
8 | 0.53 | 12.8 | 0.16 | 2.62 | – | – | – | CCc1c(F)cccc1-c1cc(C(C)(C)C(=O)NS(C)(=O)=O)ccc1O[C@@H]1CC[C@@H](NC(=O)[C@@]2(F)CNC3(CCCC3)C2)C1 (single isomer, unassigned) [Example C27]
9 | 0.47 | 7.11 | 0.14 | 1.86 | – | – | – | CCc1c(F)cccc1-c1cc(C(C)(C)C(=O)NS(=O)(=O)C(C)C)ccc1O[C@@H]1CC[C@@H](NC(=O)[C@@]2(F)CNC3(CCCC3)C2)C1 (single isomer, unassigned) [Example C29]
10 | 0.06 | 6.22 | 0.05 | 3.84 | – | – | – | CC(C)(C(=O)NS(=O)(=O)N1CCC1)c1ccc(O[C@@H]2CC[C@@H](NC(=O)[C@@]3(F)CNC4(CCC4)C3)C2)c(-c2cccc(F)c2C2CCC2)c1 [Example C3, (7S)-N-{(1R,3R)-3-[(5-{1-[(azetidin-1-ylsulfonyl)amino]-2-methyl-1-oxopropan-2-yl}-2′-cyclobutyl-3′-fluorobiphenyl-2-yl)oxy]cyclopentyl}-7-fluoro-5-azaspiro[3.4]octane-7-carboxamide]
